Measured values as given in patent US10961205B2, “1,2,4-oxadiazole derivatives as immunomodulators” (Aurigene Discovery Technologies Limited, priority 2013, dated 2021).

Test system: PD-L1
Assay: Rescue of mouse splenocyte proliferation in presence of recombinant PD-L1 (CFSE proliferation assay)
Assay type: cell-based
Details: anti-CD3/CD28 stimulated mouse splenocytes in presence of ligand (PDL-1), 72 h, stimulated splenocyte proliferation normalised as 100%
Procedure: Rescue of Mouse Splenocyte Proliferation in Presence of Recombinant PD-L1/PD-L2
Recombinant mouse PD-L1 (rm-PDL-1, cat no: 1019-B7-100 & rh-PDL-1, cat no: 156-B7-100, R&D Systems) were used as the source of PD-L1.
Mouse splenocytes harvested from 6-8 weeks old C57 BL6 mice; RPMI 1640 (GIBCO, Cat #11875); DMEM with high glucose (GIBCO, Cat #D6429); Fetal Bovine Serum [Hyclone, Cat #SH30071.03]; Penicillin (10000 unit/mL)-Streptomycin(10,000 μg/mL) Liquid (GIBCO, Cat #15140-122); MEM Sodium Pyruvate solution 100 mM (100×), Liquid (GIBCO, Cat #11360); Nonessential amino acid (GIBCO, Cat #11140); L-Glutamine (GIBCO, Cat #25030); Anti-CD3 antibody (eBiosciences—16-0032); Anti-CD28 antibody (eBiosciences—16-0281); ACK lysis buffer (1 mL) (GIBCO, Cat #-A10492); Histopaque (density-1.083 gm/mL) (SIGMA 10831); Trypan blue solution (SIGMA-T8154); 2 mL Norm Ject Luer Lock syringe-(Sigma 2014-12); 40 μm nylon cell strainer (BD FALCON 35230); Hemacytometer (Bright line-SIGMA Z359629); FACS Buffer (PBS/0.1% BSA): Phosphate Buffered Saline (PBS) pH 7.2 (HiMedia TS1006) with 0.1% Bovine Serum Albumin (BSA) (SIGMA A7050) and sodium azide (SIGMA 08591); 5 mM stock solution of CFSE: CFSE stock solution was prepared by diluting lyophilized CFSE with 180 μL of Dimethyl sulfoxide (DMSO C2H6SO, SIGMA-D-5879) and aliquoted in to tubes for further use. Working concentrations were titrated from 10 μM to 1 μM. (eBioscience—650850-85); 0.05% Trypsin and 0.02% EDTA (SIGMA 59417C); 96-well format ELISA plates (Corning CLS3390); BD FACS caliber (E6016); Recombinant mouse B7-H1/PDL1 Fc Chimera, (rm-PD-L1 cat no: 1019-B7-100).
Splenocytes harvested in a 50 mL falcon tube by mashing mouse spleen in a 40 μm cell strainer were further treated with 1 mL ACK lysis buffer for 5 min at room temperature. After washing with 9 mL of RPMI complete media, cells were re-suspended in 3 mL of 1×PBS in a 15 mL tube. 3 mL of Histopaque was added carefully to the bottom of the tube without disturbing overlaying splenocyte suspension. After centrifuging at 800×g for 20 min at room temperature, the opaque layer of splenocytes was collected carefully without disturbing/mixing the layers. Splenocytes were washed twice with cold 1×PBS followed by total cell counting using Trypan Blue exclusion method and used further for cell based assays.
Splenocytes were cultured in RPMI complete media (RPMI+10% fetal bovine serum+1 mM sodium pyruvate+10,000 units/mL penicillin and 10,000 μg/mL streptomycin) and maintained in a CO2 incubator with 5% CO2 at 37° C.
CFSE is a dye that passively diffuses into cells and binds to intracellular proteins. 1×10^6 cells/mL of harvested splenocytes were treated with 5 μM of CFSE in pre-warmed 1×PBS/0.1% BSA solution for 10 min at 37° C. Excess CFSE was quenched using 5 volumes of ice-cold culture media to the cells and incubated on ice for 5 min. CFSE labelled splenocytes were further given three washes with ice cold complete RPMI media. CFSE labelled 1×10^5 splenocytes added to wells containing either MDA-MB231 cells (1×10^5 cells cultured in high glucose DMEM medium) or recombinant […] PDL-1 (100 ng/mL) and test compounds. Splenocytes were stimulated with anti-mouse CD3 and anti-mouse CD28 antibody (1 μg/mL each), and the culture was further incubated for 72 h at 37° C. with 5% CO2. Cells were harvested and washed thrice with ice cold FACS buffer and % proliferation was analyzed by flow cytometry with 488 nm excitation and 521 nm emission filters.
Percent splenocyte proliferation was analyzed using cell quest FACS program and percent rescue of splenocyte proliferation by compound was estimated after deduction of % background proliferation value and normalising to % stimulated splenocyte proliferation (positive control) as 100%.
Stimulated splenocytes: Splenocytes+anti-CD3/CD28 stimulation
Background proliferation: Splenocytes+anti-CD3/CD28+PD-L1
Compound proliferation: Splenocytes+anti-CD3/CD28+PD-L1+Compound […]

Row | Structure (SMILES) | Percent rescue of splenocyte proliferation @ 100 nM compound concentration
1 | CCCC(=O)N[C@@H](CO)c1noc([C@H](CC(N)=O)NC(=O)N[C@H](C(=O)O)C(C)O)n1 (some centres unmarked) [Compound 9] | 34%
2 | CC(O)[C@H](NC(=O)N[C@H](CC(N)=O)c1nc([C@@H](N)CO)no1)C(=O)O (some centres unmarked) [Compound 13] | 74%
3 | NC(=O)CC[C@H](NC(=O)N[C@@H](CO)C(=O)O)c1nc([C@@H](N)CO)no1 [Compound 21] | 47%
4 | CC(O)[C@@H](NC(=O)N[C@H](CC(N)=O)c1nc([C@H](N)CO)no1)C(=O)O (some centres unmarked) [Compound 15] | 83%
5 | CC(O)[C@H](N)c1noc([C@H](CCC(N)=O)NC(=O)N[C@@H](CO)C(=O)O)n1 (some centres unmarked) [Compound 22] | 55%
6 | CC(O)[C@@H](N)c1noc([C@@H](CC(N)=O)NC(=O)N[C@H](CO)C(=O)O)n1 (some centres unmarked) [Compound 5] | 67.6%
7 | CC(O)[C@@H](NC(=O)N[C@@H](CC(N)=O)c1nc([C@@H](N)CO)no1)C(=O)O (some centres unmarked) [Compound 11] | 90%
8 | CC(O)[C@H](NC(=O)N[C@H](CC(N)=O)c1nc([C@H](N)CO)no1)C(=O)O (some centres unmarked) [Compound 17] | 55%
9 | COC[C@H](N)c1noc([C@H](CC(N)=O)NC(=O)N[C@H](C(=O)O)C(C)O)n1 (some centres unmarked) [Compound 10] | 49%
10 | CC(O)[C@H](NC(=O)N[C@@H](CCC(N)=O)c1nc([C@@H](N)CO)no1)C(=O)O (some centres unmarked) [Compound 20] | 69%
11 | NC(=O)C[C@H](NC(=O)N[C@@H](CO)C(=O)O)c1nc([C@@H](N)CO)no1 [Compound 2] | 50%
12 | N[C@@H](CO)c1noc([C@H](CCC(=O)O)NC(=O)N[C@@H](CO)C(=O)O)n1 [Compound 8] | 67%
13 | CC(O)[C@H](NC(=O)N[C@@H](CCC(=O)O)c1nc([C@@H](N)CO)no1)C(=O)O (some centres unmarked) [Compound 19] | 88%
14 | COC(=O)[C@@H](NC(=O)N[C@@H](CC(N)=O)c1nc([C@@H](N)CO)no1)C(C)O (some centres unmarked) [Compound 6] | 84%
15 | CC(O)[C@@H](NC(=O)N[C@H](CC(N)=O)c1nc([C@@H](N)CO)no1)C(=O)O (some centres unmarked) [Compound 18] | 64%
16 | N[C@@H](CO)c1noc([C@H](CC(=O)O)NC(=O)N[C@@H](CO)C(=O)O)n1 [Compound 25] | 91%
17 | CC(O)[C@H](NC(=O)N[C@@H](CC(N)=O)c1nc([C@@H](N)CO)no1)C(=O)O (some centres unmarked) [Compound 4] | 89%
18 | CC(O)[C@H](NC(=O)N[C@@H](CC(=O)O)c1nc([C@@H](N)CO)no1)C(=O)O (some centres unmarked) [Compound 24] | 52%
19 | CC(O)[C@H](NC(=O)N[C@@H](CC(N)=O)c1nc([C@H](N)CO)no1)C(=O)O (some centres unmarked) [Compound 12] | 64%
20 | NC(=O)C[C@H](N)c1nc([C@@H](N)CO)no1 [Compound 1] | 93%
21 | CC(O)[C@H](NC(=O)N[C@@H](CC(N)=O)c1nc([C@@H](N)CO)no1)C(N)=O (some centres unmarked) [Compound 7] | 55%
22 | CC(O)[C@H](NC(=O)N[C@@H](CCC(N)=O)c1nc([C@@H](N)C(C)O)no1)C(=O)O (some centres unmarked) [Compound 23] | 74%
23 | CC(O)[C@@H](NC(=O)N[C@@H](CC(N)=O)c1nc([C@H](N)CO)no1)C(=O)O (some centres unmarked) [Compound 16] | 72%
